Results published in PubChem BioAssay (NCI).
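GI50 marks 50% less growth. At the TGI there is no net growth.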

Experiments:
Experiment in all cases: NCI anticancer screen, dose series, 384-well format
[1] = tested on: 786-0 renal
[2] = tested on: A498 renal
[3] = tested on: A549 NSCLC
[4] = tested on: ACHN renal
[5] = tested on: BT-549 breast
[6] = tested on: CAKI-1 renal
[7] = tested on: CCRF-CEM leukemia
[8] = tested on: COLO 205 colon
[9] = tested on: DU-145 prostate
[10] = tested on: EKVX NSCLC
[11] = tested on: HCC-2998 colon
[12] = tested on: HCT-116 colon
[13] = tested on: HCT-15 colon
[14] = tested on: HL-60(TB) leukemia
[15] = tested on: HOP-62 NSCLC
[16] = tested on: HOP-92 NSCLC
[17] = tested on: HS 578T breast
[18] = tested on: HT29 colon
[19] = tested on: IGROV1 ovarian
[20] = tested on: K-562 leukemia
[21] = tested on: KM12 colon
[22] = tested on: LOX IMVI melanoma
[23] = tested on: M14 melanoma
[24] = tested on: MALME-3M melanoma
[25] = tested on: MCF7 breast
[26] = tested on: MDA-MB-231 breast
[27] = tested on: MDA-MB-435 melanoma
[28] = tested on: MDA-MB-468 breast
[29] = tested on: MOLT-4 leukemia
[30] = tested on: NCI-H226 lung
[31] = tested on: NCI-H23 lung
[32] = tested on: NCI-H322M lung
[33] = tested on: NCI-H460 NSCLC
[34] = tested on: NCI-H522 lung
[35] = tested on: NCI/ADR-RES ovarian
[36] = tested on: OVCAR-3 ovarian
[37] = tested on: OVCAR-4 ovarian
[38] = tested on: OVCAR-8 ovarian
[39] = tested on: PC-3 prostate
[40] = tested on: RPMI-8226 leukemia
[41] = tested on: RXF 393 renal
[42] = tested on: SF-268 CNS
[43] = tested on: SF-295 CNS
[44] = tested on: SF-539 CNS
[45] = tested on: SK-MEL-28 melanoma
[46] = tested on: SK-MEL-5 melanoma
[47] = tested on: SK-OV-3 ovarian
[48] = tested on: SN12C renal
[49] = tested on: SNB-19 CNS
[50] = tested on: SNB-75 CNS
[51] = tested on: SR leukemia
[52] = tested on: SW-620 colon
[53] = tested on: T-47D breast
[54] = tested on: TK-10 renal
[55] = tested on: U251 glioblastoma
[56] = tested on: UACC-257 melanoma
[57] = tested on: UACC-62 melanoma
[58] = tested on: UO-31 renal

**Q.** How did the GI50 [1] turn out when `O=C(NOCCO)c1ccc2cncn2c1Nc1ccc(I)cc1F` was run?
**A.** 1.23 µM

**Q.** And the TGI [1]?
**A.** 20.7 µM

**Q.** What about the GI50 [2] of the same compound?
**A.** 11.9 µM

**Q.** And the TGI [2]?
**A.** 32.4 µM

**Q.** What about the GI50 [3] of the same compound?
**A.** 0.026 µM

**Q.** What about the TGI [3] of the same compound?
**A.** 11.1 µM

**Q.** What about the GI50 [4] of the same compound?
**A.** 7.88 µM

**Q.** What about the TGI [4] of the same compound?
**A.** > 100 µM

**Q.** What about the GI50 [5] of the same compound?
**A.** 10 µM

**Q.** And the TGI [5]?
**A.** 25.4 µM

**Q.** What about the GI50 [6] of the same compound?
**A.** 0.0109 µM

**Q.** What about the TGI [6] of the same compound?
**A.** 13.3 µM

**Q.** What about the GI50 [7] of the same compound?
**A.** 13.3 µM

**Q.** And the TGI [7]?
**A.** 27 µM

**Q.** And the GI50 [8]?
**A.** < 0.01 µM

**Q.** What about the TGI [8] of the same compound?
**A.** 0.0258 µM

**Q.** What about the GI50 [9] of the same compound?
**A.** 2.14 µM

**Q.** What about the TGI [9] of the same compound?
**A.** 22.4 µM

**Q.** What about the GI50 [10] of the same compound?
**A.** 0.153 µM

**Q.** And the TGI [10]?
**A.** 17.8 µM

**Q.** What about the GI50 [11] of the same compound?
**A.** < 0.01 µM

**Q.** And the TGI [11]?
**A.** 0.0101 µM

**Q.** And the GI50 [12]?
**A.** < 0.01 µM

**Q.** What about the TGI [12] of the same compound?
**A.** 0.191 µM

**Q.** What about the GI50 [13] of the same compound?
**A.** 0.301 µM

**Q.** What about the TGI [13] of the same compound?
**A.** > 100 µM

**Q.** And the GI50 [14]?
**A.** < 0.01 µM

**Q.** And the TGI [14]?
**A.** < 0.01 µM

**Q.** What about the GI50 [15] of the same compound?
**A.** 0.0128 µM

**Q.** And the TGI [15]?
**A.** 15.3 µM

**Q.** And the GI50 [16]?
**A.** 0.012 µM

**Q.** And the TGI [16]?
**A.** 0.198 µM

**Q.** What about the GI50 [17] of the same compound?
**A.** 1.22 µM

**Q.** What about the TGI [17] of the same compound?
**A.** 7.01 µM

**Q.** And the GI50 [18]?
**A.** < 0.01 µM

**Q.** And the TGI [18]?
**A.** 14.3 µM

**Q.** And the GI50 [19]?
**A.** < 0.01 µM

**Q.** And the TGI [19]?
**A.** 12.6 µM

**Q.** What about the GI50 [20] of the same compound?
**A.** 0.0267 µM

**Q.** And the TGI [20]?
**A.** 14.7 µM

**Q.** And the GI50 [21]?
**A.** < 0.01 µM

**Q.** What about the TGI [21] of the same compound?
**A.** 17.9 µM

**Q.** And the GI50 [22]?
**A.** < 0.01 µM

**Q.** And the TGI [22]?
**A.** 0.259 µM

**Q.** What about the GI50 [23] of the same compound?
**A.** < 0.01 µM

**Q.** What about the TGI [23] of the same compound?
**A.** < 0.01 µM

**Q.** And the GI50 [24]?
**A.** < 0.01 µM

**Q.** What about the TGI [24] of the same compound?
**A.** < 0.01 µM

**Q.** And the GI50 [25]?
**A.** 11.5 µM

**Q.** And the TGI [25]?
**A.** 47.2 µM

**Q.** And the GI50 [26]?
**A.** < 0.01 µM

**Q.** What about the TGI [26] of the same compound?
**A.** 1.02 µM

**Q.** And the GI50 [27]?
**A.** < 0.01 µM

**Q.** And the TGI [27]?
**A.** 21.1 µM

**Q.** What about the GI50 [28] of the same compound?
**A.** 6.92 µM

**Q.** What about the TGI [28] of the same compound?
**A.** 21.5 µM

**Q.** What about the GI50 [29] of the same compound?
**A.** 14.8 µM

**Q.** And the TGI [29]?
**A.** 31.7 µM

**Q.** And the GI50 [30]?
**A.** 1.01 µM

**Q.** What about the TGI [30] of the same compound?
**A.** 18.3 µM

**Q.** And the GI50 [31]?
**A.** < 0.01 µM

**Q.** And the TGI [31]?
**A.** 0.077 µM

**Q.** What about the GI50 [32] of the same compound?
**A.** 0.0325 µM

**Q.** What about the TGI [32] of the same compound?
**A.** 15.5 µM

**Q.** What about the GI50 [33] of the same compound?
**A.** < 0.01 µM

**Q.** And the TGI [33]?
**A.** 22.1 µM

**Q.** What about the GI50 [34] of the same compound?
**A.** 11.8 µM

**Q.** And the TGI [34]?
**A.** 26.4 µM

**Q.** And the GI50 [35]?
**A.** 23.1 µM

**Q.** What about the TGI [35] of the same compound?
**A.** > 100 µM

**Q.** What about the GI50 [36] of the same compound?
**A.** 11.2 µM

**Q.** And the TGI [36]?
**A.** 29.1 µM

**Q.** And the GI50 [37]?
**A.** 4.22 µM

**Q.** What about the TGI [37] of the same compound?
**A.** 38.3 µM

**Q.** And the GI50 [38]?
**A.** 2.6 µM

**Q.** What about the TGI [38] of the same compound?
**A.** 18.2 µM

**Q.** What about the GI50 [39] of the same compound?
**A.** 18.1 µM

**Q.** What about the TGI [39] of the same compound?
**A.** 35.4 µM

**Q.** And the GI50 [40]?
**A.** 2.16 µM

**Q.** What about the TGI [40] of the same compound?
**A.** 20.9 µM

**Q.** And the GI50 [41]?
**A.** 0.196 µM

**Q.** And the TGI [41]?
**A.** 15.1 µM

**Q.** What about the GI50 [42] of the same compound?
**A.** 9.41 µM

**Q.** And the TGI [42]?
**A.** 22.9 µM

**Q.** And the GI50 [43]?
**A.** 11.1 µM

**Q.** And the TGI [43]?
**A.** 26.2 µM

**Q.** What about the GI50 [44] of the same compound?
**A.** 0.288 µM

**Q.** What about the TGI [44] of the same compound?
**A.** 11.7 µM

**Q.** And the GI50 [45]?
**A.** < 0.01 µM

**Q.** What about the TGI [45] of the same compound?
**A.** < 0.01 µM

**Q.** And the GI50 [46]?
**A.** < 0.01 µM

**Q.** What about the TGI [46] of the same compound?
**A.** 15.8 µM

**Q.** And the GI50 [47]?
**A.** 2.76 µM

**Q.** What about the TGI [47] of the same compound?
**A.** 18.7 µM

**Q.** And the GI50 [48]?
**A.** < 0.01 µM

**Q.** What about the TGI [48] of the same compound?
**A.** 17.9 µM

**Q.** What about the GI50 [49] of the same compound?
**A.** 0.0878 µM

**Q.** What about the TGI [49] of the same compound?
**A.** 20.6 µM

**Q.** What about the GI50 [50] of the same compound?
**A.** 0.34 µM

**Q.** And the TGI [50]?
**A.** 15.7 µM

**Q.** What about the GI50 [51] of the same compound?
**A.** 0.087 µM

**Q.** What about the TGI [51] of the same compound?
**A.** 2.39 µM

**Q.** What about the GI50 [52] of the same compound?
**A.** < 0.01 µM

**Q.** What about the TGI [52] of the same compound?
**A.** 12.5 µM

**Q.** What about the GI50 [53] of the same compound?
**A.** 15.2 µM

**Q.** And the TGI [53]?
**A.** 43.1 µM

**Q.** And the GI50 [54]?
**A.** 0.0704 µM

**Q.** And the TGI [54]?
**A.** 27.4 µM

**Q.** What about the GI50 [55] of the same compound?
**A.** 0.0466 µM

**Q.** What about the TGI [55] of the same compound?
**A.** 10.6 µM

**Q.** What about the GI50 [56] of the same compound?
**A.** < 0.01 µM

**Q.** And the TGI [56]?
**A.** < 0.01 µM

**Q.** What about the GI50 [57] of the same compound?
**A.** < 0.01 µM

**Q.** And the TGI [57]?
**A.** 0.0159 µM

**Q.** What about the GI50 [58] of the same compound?
**A.** 0.0408 µM

**Q.** What about the TGI [58] of the same compound?
**A.** 20.2 µM
